Legend:
[1] = Pharmacokinetic study in SD male rats; assay type: in vivo; conditions: rat, plasma; for clearance: read-out: Cl—obs iv (clearance rate) (converted); for Vd: read-out: Vss iv (volume of distribution); for bioavailability: iv 1.0 mg/kg / po 5.0 mg/kg, read-out: F % (absolute bioavailability); for Tmax: median, read-out: Tmax po (peak time of plasma concentration); for Cmax: read-out: Cmax po (peak concentration)
Description: Experimental Example 3: Pharmacokinetic Study of Compounds in SD Male Rats
Compound 54, Compound 55, Compound 174, Compound 173, and Compound 264 were prepared into solutions with a mixed solvent formulated from 5% dimethyl sulfoxide, 20% (30% solutol) and 75% normal saline, respectively; the solution of each compound was administered to SD male rats by gavage at a dose of 5.0 mg/kg; and the time points for blood collection were: 15 min, 30 min, 1 h, 2 h, 4 h, 6 h, 8 h, 10 h and 24 h. The solution of the compound was administered to male SD rats by intravenous bolus at a dose of 1.0 mg/kg, and the time points for blood collection were as follows: 5 min, 15 min, 30 min, 1 h, 2 h, 4 h, 6 h, 8 h, 10 h, and 24 h.
On the day before administration, the jugular vein of each animal was cannulated; and after administration, about 300 μL of blood was collected through the jugular vein, and then placed in an anticoagulant tube containing EDTA-K2. Blood samples were centrifuged at 12,000 rpm for 10 min at 4° C. to obtain plasma samples, and plasma was prepared within 30 min after blood collection. The plasma was stored in a −80° C. freezer before testing.
• 1. The samples were taken from the −80° C. freezer, thawed naturally at room temperature, and then vortexed for 5 min. • 2. 30 μL of a plasma sample was precisely pipetted into a 1.5 mL centrifuge tube. • 3. 750 μL of an internal standard working solution (the acetonitrile solution of tolbutamide) at a concentration of […] was added and mixed well. • 4. After vortexing for 5 min, the mixture was centrifuged at 12,000 rpm for 5 min. • 5. 50 μL of the supernatant was accurately pipetted into a 96-well plate preloaded with water at 150 μL/well. • 6. Vortexing was performed for 5 min for sufficient mixing, and LC-MS/MS analysis was then conducted.
(§1) The results of the concentrations of the compounds under test were output using Analyst 1.6.3 of AB. Parameters such as mean, standard deviation, coefficient of variation was calculated by Microsoft Excel (parameters directly output by Analyst 1.6.3 needed no calculation), and PK parameters were calculated by WinNonlin Phenoix 8.2 software NCA (Tmax as the median).

[2] = Pharmacokinetic study in C57BL/6J mice; assay type: in vivo; conditions: mouse, plasma, C57BL/6J female mice; for Tmax: median, read-out: Tmax po (peak time of plasma concentration); for Cmax: read-out: Cmax po (peak concentration); for clearance: read-out: Cl—obs iv (clearance rate) (converted); for Vd: read-out: Vss iv (volume of distribution); for bioavailability: iv 5 mg/kg / po 10 mg/kg, read-out: F % (absolute bioavailability)
Description: Experimental Example 2: Pharmacokinetic Study of Compounds in C57BL/6J Mice
Compound 100, Compound 54, Compound 174, Compound 179, and Compound 253 were prepared into solutions with a mixed solvent formulated from 5% dimethyl sulfoxide, 20% (30% solutol) and 75% normal saline, respectively; the solution of each compound was administered to C57BL/6J female mice by gavage at a dose of 10 mg/kg; and the time points for blood collection were: 15 min, 30 min, 1 h, 2 h, 4 h, 6 h, 8 h and 24 h. The solution of the compound was administered to C57BL/6J female mice by intravenous bolus at a dose of 5 mg/kg, and the time points for blood collection were as follows: 5 min, 15 min, 30 min, 1 h, 2 h, 4 h, 6 h, 8 h, and 24 h.
Compound 1 was prepared into a solution with a mixed solvent formulated from 5% DME, 20% (30% solutol) and 75% normal saline; the solution of this compound was administered to C57BL/6J female mice by gavage at a dose of 10 mg/kg, and the time points for blood collection were: 15 min, 30 min, 1 h, 2 h, 4 h, 6 h, 8 h, and 24 h. The solution of the compound was administered to C57BL/6J female mice by intravenous bolus at a dose of 5 mg/kg, and the time points for blood collection were as follows: 5 min, 15 min, 30 min, 1 h, 2 h, 4 h, 6 h, 8 h, and 24 h.
Compound 195 was prepared into a solution with a mixed solvent formulated from 5% dimethyl sulfoxide, 20% PEG400 and 75% normal saline; the solution of this compound was administered to C57BL/6J female mice by gavage at a dose of 10 mg/kg; and the time points for blood collection were 15 min, 30 min, 1 h, 2 h, 4 h, 6 h, 8 h, and 24 b. The solution of the compound was administered to C57BL/6J female mice by intravenous bolus at a dose of 5 mg/kg, and the time points for blood collection were as follows: 5 min, 15 min, 30 min, 1 h, 2 b, 4 h, 6 h, 8 h, and 24 h.
Approximately 100 μL of blood was collected through the retroorbital venous plexus, and was then placed in an anticoagulant tube containing EDTA-K2. Blood samples were centrifuged at 12,000 rpm for 10 min at 4° C. to obtain plasma samples, and plasma was prepared within 30 min after blood collection. The plasma was stored in a −80° C. freezer before testing.
• 1. The samples were taken from the −80° C. freezer, thawed naturally at room temperature, and then vortexed for 5 min • 2. 10 μL of a plasma sample was precisely pipetted from different individuals into a 1.5 mL centrifuge tube. • 3. 300 μL of an internal standard working solution (the acetonitrile solution of tolbutamide) at a concentration of […] was added and mixed well. • 4. After vortexing for 5 min, the mixture was centrifuged at 12,000 rpm for 5 min. • 5. 50 μL of the supernatant was accurately pipetted into a 96-well plate preloaded with water at 150 μL/well. • 6. Vortexing was performed for 5 min for sufficient mixing, and LC-MS/MS analysis was then conducted.
as §1

[3] = intravenous bolus 1.0 mg/kg, read-out: AUClast iv (area under the drug-time curve for 0-24 h)
[4] = intravenous bolus 1.0 mg/kg, read-out: tz1/2 iv (terminal elimination half-life) (converted)
[5] = po, gavage 5.0 mg/kg, read-out: AUClast po (area under the drug-time curve for 0-24 h)
[6] = po, gavage 5.0 mg/kg, read-out: tz1/2 po (terminal elimination half-life) (converted)
[7] = po, gavage 10 mg/kg, read-out: AUClast po (area under the drug-time curve for 0-24 h)
[8] = po, gavage 10 mg/kg, read-out: tz1/2 po (terminal elimination half-life) (converted)
[9] = intravenous bolus 5 mg/kg, read-out: AUClast iv (area under the drug-time curve for 0-24 h)
[10] = intravenous bolus 5 mg/kg, read-out: tz1/2 iv (terminal elimination half-life) (converted)

Row | AUC(0-t) [1, 3] [ng·h/mL] | clearance ([1]; intravenous bolus 1.0 mg/kg) [mL/min/kg] | Vd ([1]; intravenous bolus 1.0 mg/kg) [L/kg] | half-life [1, 4] [h] | bioavailability [1] [%] | Tmax ([1]; po, gavage 5.0 mg/kg) [h] | AUC(0-t) [1, 5] [ng·h/mL] | Cmax ([1]; po, gavage 5.0 mg/kg) [ng/mL] | half-life [1, 6] [h] | Tmax ([2]; po, gavage 10 mg/kg) [h] | AUC(0-t) [2, 7] [ng·h/mL] | Cmax ([2]; po, gavage 10 mg/kg) [ng/mL] | half-life [2, 8] [h] | AUC(0-t) [2, 9] [ng·h/mL] | clearance ([2]; intravenous bolus 5 mg/kg) [mL/min/kg] | Vd ([2]; intravenous bolus 5 mg/kg) [L/kg] | half-life [2, 10] [h] | bioavailability [2] [%] | SMILES
1 | 813 | 18.2 | 4.82 | 3.6 | 97 | 2 | 4430 | 465 | 3.51 | 0.5 | 20100 | 3160 | 3.82 | 8610 | 9.57 | 2.64 | 3.95 | 116 | CC#Cc1ccc(-c2nnc(N[C@@H]3CCCN(C)C3)cc2C)c(O)c1 [Compound 174, (R)-2-(4-methyl-6-((1-methylpiperidin-3-yl)amino)pyridazin-3-yl)-5-(prop-1-yn-1-yl)phenol]
2 | 749 | 20.2 | 5.01 | 2.97 | 93.1 | 1 | 3790 | 442 | 3.94 | 1 | 4130 | 820 | 3.04 | 2400 | 30.5 | 6.59 | 2.97 | 75.6 | C#Cc1ccc(-c2nnc(N[C@@H]3CCCN(C)C3)cc2C)c(O)c1 [Compound 54, (R)-5-ethynyl-2-(4-methyl-6-((1-methylpiperidin-3-yl)amino)pyridazin-3-yl)phenol]
